Laboratory results reported in ChEMBL document CHEMBL4649989, “Design of a Chemical Probe for the Bromodomain and Plant Homeodomain Finger-Containing (BRPF) Family of Proteins” (J Med Chem, 2017).
“And” between values parts separate entries of the source, which are not always exact repeats. Equal values may be shown once.

What was measured:
[1] = target: ATPase family AAA domain-containing protein 2B (Homo sapiens) (UniProt Q9ULI0); conditions: Compound concentration 10.0 uM
[2] = target: Nuclear body protein SP140 (Homo sapiens) (UniProt Q13342); conditions: Compound concentration 10.0 uM
[3] = target: Histone-lysine N-methyltransferase ASH1L (Homo sapiens) (UniProt Q9NR48); conditions: Compound concentration 10.0 uM
[4] = target: Bromodomain adjacent to zinc finger domain protein 2A (Homo sapiens) (UniProt Q9UIF9); conditions: Compound concentration 10.0 uM
[5] = target: Bromodomain adjacent to zinc finger domain protein 2B (Homo sapiens) (UniProt Q9UIF8); conditions: Compound concentration 10.0 uM
[6] = target: Bromodomain-containing protein 3 (Homo sapiens) (UniProt Q15059); conditions: Compound concentration 10.0 uM
Chain of Bromodomain-containing protein 3 (Homo sapiens) (Q15059 2-726 limits assumed): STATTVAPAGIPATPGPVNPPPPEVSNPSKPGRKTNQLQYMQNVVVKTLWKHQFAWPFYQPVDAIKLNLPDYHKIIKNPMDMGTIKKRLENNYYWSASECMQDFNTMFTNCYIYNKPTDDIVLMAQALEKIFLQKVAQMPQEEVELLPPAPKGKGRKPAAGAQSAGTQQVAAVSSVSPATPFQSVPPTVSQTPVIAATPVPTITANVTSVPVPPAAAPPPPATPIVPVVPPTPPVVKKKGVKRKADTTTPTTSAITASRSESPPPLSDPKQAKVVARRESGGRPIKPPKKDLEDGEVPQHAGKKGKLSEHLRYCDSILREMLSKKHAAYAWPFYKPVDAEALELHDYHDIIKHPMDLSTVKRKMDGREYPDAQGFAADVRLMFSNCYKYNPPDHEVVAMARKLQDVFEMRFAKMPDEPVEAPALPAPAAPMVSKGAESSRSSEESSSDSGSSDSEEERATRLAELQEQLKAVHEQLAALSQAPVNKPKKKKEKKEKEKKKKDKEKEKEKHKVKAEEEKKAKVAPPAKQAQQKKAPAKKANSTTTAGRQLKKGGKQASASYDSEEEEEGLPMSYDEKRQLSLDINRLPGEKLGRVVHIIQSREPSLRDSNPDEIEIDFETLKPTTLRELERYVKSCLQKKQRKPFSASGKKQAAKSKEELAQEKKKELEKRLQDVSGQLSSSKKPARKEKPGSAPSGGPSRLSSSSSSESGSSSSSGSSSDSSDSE

[7] = target: Bromodomain-containing protein 2 (Homo sapiens) (UniProt P25440); conditions: Compound concentration 10.0 uM
[8] = target: Bromodomain-containing protein 1 (Homo sapiens, UniProt O95696)
Peregrin (Homo sapiens) [9] = target: Peregrin (Homo sapiens) (UniProt P55201); conditions: Compound concentration 10.0 uM
Chain of Peregrin (Homo sapiens) (P55201 whole entry): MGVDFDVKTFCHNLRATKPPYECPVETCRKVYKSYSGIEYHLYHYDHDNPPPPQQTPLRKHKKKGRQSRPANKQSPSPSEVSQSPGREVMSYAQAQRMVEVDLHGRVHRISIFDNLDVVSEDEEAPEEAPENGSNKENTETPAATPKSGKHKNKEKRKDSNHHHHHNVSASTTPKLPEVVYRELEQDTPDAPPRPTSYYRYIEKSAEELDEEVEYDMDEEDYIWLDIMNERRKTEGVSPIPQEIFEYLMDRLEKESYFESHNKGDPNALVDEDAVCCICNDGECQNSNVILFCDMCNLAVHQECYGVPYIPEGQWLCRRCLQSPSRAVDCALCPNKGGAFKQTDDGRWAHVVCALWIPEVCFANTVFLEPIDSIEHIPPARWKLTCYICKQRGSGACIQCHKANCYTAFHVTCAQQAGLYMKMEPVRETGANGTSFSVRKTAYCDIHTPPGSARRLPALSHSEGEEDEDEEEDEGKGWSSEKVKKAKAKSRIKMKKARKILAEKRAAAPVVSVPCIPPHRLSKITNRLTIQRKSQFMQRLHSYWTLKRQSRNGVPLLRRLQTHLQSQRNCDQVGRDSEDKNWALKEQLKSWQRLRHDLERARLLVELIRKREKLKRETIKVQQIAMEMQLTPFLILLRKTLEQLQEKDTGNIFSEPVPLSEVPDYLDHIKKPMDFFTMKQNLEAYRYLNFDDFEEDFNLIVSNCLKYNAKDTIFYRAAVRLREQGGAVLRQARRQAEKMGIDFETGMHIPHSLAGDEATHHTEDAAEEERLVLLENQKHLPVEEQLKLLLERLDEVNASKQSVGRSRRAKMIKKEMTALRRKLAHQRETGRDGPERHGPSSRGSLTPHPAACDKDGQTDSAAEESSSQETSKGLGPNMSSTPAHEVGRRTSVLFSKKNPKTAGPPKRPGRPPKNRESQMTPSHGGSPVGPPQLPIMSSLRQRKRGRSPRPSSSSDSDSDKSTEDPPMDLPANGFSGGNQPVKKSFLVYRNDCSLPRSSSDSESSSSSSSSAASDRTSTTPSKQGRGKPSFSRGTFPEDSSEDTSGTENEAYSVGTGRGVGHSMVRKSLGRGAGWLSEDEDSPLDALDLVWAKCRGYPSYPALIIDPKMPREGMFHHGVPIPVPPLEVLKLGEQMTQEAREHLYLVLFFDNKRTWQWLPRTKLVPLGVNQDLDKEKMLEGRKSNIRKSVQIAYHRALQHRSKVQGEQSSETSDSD

[10] = target: CREB-binding protein (Homo sapiens) (UniProt Q92793); conditions: Compound concentration 5.0 uM
Description: Alphascreen assay. Domain start/stop: R1081-G1197

[11] = target: Bromodomain testis-specific protein (Homo sapiens) (UniProt Q58F21); conditions: Compound concentration 10.0 uM
[12] = target: Transcription initiation factor TFIID subunit 1 (Homo sapiens) (UniProt P21675); conditions: Compound concentration 10.0 uM
[13] = target: Bromodomain-containing protein 2 (Homo sapiens) (UniProt P25440); conditions: Compound concentration 10.0 uM; remark: listed apart in the source
[14] = target: Bromodomain-containing protein 9 (Homo sapiens) (UniProt Q9H8M2); conditions: Compound concentration 10.0 uM
Chain of Bromodomain-containing protein 9 (Homo sapiens) (Q9H8M2 whole entry): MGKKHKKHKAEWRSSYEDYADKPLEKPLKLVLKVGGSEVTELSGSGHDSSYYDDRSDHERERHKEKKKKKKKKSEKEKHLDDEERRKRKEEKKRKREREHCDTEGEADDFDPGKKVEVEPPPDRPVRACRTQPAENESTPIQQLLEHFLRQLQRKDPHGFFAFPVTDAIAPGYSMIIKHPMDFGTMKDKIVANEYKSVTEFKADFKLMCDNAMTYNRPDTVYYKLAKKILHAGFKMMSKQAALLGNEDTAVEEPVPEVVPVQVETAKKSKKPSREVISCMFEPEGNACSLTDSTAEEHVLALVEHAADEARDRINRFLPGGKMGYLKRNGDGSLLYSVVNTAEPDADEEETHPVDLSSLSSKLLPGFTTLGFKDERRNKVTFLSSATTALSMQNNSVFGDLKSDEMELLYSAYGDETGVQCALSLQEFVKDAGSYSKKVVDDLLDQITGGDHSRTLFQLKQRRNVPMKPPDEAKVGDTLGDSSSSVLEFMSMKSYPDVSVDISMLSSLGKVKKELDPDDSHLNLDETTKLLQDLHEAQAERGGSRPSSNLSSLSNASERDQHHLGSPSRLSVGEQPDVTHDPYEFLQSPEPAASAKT

[15] = target: Bromodomain testis-specific protein (Homo sapiens) (UniProt Q58F21); conditions: Compound concentration 10.0 uM; remark: listed apart in the source
[16] = target: Nucleosome-remodeling factor subunit BPTF (Homo sapiens) (UniProt Q12830); conditions: Compound concentration 25.0 uM, Protein concentration 19.0 uM
Description: Alphascreen assay. Domain start/stop: S2791-H2911

[17] = target: Bromodomain-containing protein 4 (Homo sapiens) (UniProt O60885); conditions: Compound concentration 10.0 uM
[18] = target: Chromatin remodeling regulator CECR2 (Homo sapiens) (UniProt Q9BXF3); conditions: Compound concentration 10.0 uM
Chain of Chromatin remodeling regulator CECR2 (Homo sapiens) (Q9BXF3 whole entry, looked up): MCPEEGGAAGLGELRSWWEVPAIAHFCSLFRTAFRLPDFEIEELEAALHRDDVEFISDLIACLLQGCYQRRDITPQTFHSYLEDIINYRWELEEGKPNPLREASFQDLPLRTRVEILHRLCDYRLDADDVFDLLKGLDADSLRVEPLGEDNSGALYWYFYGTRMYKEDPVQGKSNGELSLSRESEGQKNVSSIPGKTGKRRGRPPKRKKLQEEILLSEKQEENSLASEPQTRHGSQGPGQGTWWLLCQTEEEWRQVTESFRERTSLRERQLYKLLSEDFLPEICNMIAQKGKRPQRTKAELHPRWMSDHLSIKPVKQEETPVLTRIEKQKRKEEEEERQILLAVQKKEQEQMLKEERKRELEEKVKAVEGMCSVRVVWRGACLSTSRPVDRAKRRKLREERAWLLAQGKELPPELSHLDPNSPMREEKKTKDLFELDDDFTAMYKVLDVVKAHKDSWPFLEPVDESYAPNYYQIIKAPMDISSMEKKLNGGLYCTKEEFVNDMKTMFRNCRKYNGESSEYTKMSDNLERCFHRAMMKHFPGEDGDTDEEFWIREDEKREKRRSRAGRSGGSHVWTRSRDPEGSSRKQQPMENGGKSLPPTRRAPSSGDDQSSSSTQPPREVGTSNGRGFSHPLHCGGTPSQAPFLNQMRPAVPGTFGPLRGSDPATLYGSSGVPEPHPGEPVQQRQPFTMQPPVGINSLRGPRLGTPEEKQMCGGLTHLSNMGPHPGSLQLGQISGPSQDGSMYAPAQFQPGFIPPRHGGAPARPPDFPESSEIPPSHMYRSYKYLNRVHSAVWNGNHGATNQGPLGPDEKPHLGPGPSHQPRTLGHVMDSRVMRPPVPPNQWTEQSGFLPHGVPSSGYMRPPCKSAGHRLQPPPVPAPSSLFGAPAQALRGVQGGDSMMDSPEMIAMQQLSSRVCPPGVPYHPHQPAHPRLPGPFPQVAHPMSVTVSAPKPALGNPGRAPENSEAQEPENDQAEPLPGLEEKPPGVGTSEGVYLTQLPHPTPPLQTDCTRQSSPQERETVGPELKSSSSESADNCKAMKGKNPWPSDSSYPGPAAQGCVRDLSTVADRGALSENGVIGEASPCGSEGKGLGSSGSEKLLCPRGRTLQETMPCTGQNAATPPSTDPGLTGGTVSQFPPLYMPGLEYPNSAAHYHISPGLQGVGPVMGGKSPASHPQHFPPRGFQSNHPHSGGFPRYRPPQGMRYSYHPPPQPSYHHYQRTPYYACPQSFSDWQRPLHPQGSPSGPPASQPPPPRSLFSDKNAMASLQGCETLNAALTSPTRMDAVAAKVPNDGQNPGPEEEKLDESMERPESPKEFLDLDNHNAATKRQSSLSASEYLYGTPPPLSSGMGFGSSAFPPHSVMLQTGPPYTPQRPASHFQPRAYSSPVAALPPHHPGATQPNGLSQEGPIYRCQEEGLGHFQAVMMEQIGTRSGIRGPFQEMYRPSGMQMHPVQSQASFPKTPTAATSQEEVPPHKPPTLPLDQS

[19] = target: Transcription initiation factor TFIID subunit 1 (Homo sapiens) (UniProt P21675); conditions: Compound concentration 10.0 uM; remark: listed apart in the source
[20] = target: PH-interacting protein (Homo sapiens) (UniProt Q8WWQ0); conditions: Compound concentration 10.0 uM
[21] = target: SWI/SNF-related matrix-associated actin-dependent regulator of chromatin subfamily A member 4 (Homo sapiens) (UniProt P51532); conditions: Compound concentration 10.0 uM
[22] = target: Tyrosine-protein kinase BAZ1B (Homo sapiens) (UniProt Q9UIG0); conditions: Compound concentration 10.0 uM
[23] = target: Chromatin remodeling regulator CECR2 (Homo sapiens) (UniProt Q9BXF3); conditions: Compound concentration 25.0 uM, Protein concentration 19.0 uM
[24] = target: CREB-binding protein (Homo sapiens) (UniProt Q92793); conditions: Compound concentration 10.0 uM
[25] = target: Protein polybromo-1 (Homo sapiens) (UniProt Q86U86); conditions: Compound concentration 10.0 uM
[26] = target: Bromodomain-containing protein 9 (Homo sapiens) (UniProt Q9H8M2); conditions: Compound concentration 10.0 uM; remark: listed apart in the source
Description: Thermal Shift Assay. Domain start/stop: L14-S134

[27] = target: E3 ubiquitin-protein ligase TRIM33 (Homo sapiens) (UniProt Q9UPN9); conditions: Compound concentration 25.0 uM
[28] = target: Transcription intermediary factor 1-alpha (Homo sapiens) (UniProt O15164); conditions: Compound concentration 10.0 uM
Chain of Transcription intermediary factor 1-alpha (Homo sapiens) (O15164 whole entry, the tested form may be a part): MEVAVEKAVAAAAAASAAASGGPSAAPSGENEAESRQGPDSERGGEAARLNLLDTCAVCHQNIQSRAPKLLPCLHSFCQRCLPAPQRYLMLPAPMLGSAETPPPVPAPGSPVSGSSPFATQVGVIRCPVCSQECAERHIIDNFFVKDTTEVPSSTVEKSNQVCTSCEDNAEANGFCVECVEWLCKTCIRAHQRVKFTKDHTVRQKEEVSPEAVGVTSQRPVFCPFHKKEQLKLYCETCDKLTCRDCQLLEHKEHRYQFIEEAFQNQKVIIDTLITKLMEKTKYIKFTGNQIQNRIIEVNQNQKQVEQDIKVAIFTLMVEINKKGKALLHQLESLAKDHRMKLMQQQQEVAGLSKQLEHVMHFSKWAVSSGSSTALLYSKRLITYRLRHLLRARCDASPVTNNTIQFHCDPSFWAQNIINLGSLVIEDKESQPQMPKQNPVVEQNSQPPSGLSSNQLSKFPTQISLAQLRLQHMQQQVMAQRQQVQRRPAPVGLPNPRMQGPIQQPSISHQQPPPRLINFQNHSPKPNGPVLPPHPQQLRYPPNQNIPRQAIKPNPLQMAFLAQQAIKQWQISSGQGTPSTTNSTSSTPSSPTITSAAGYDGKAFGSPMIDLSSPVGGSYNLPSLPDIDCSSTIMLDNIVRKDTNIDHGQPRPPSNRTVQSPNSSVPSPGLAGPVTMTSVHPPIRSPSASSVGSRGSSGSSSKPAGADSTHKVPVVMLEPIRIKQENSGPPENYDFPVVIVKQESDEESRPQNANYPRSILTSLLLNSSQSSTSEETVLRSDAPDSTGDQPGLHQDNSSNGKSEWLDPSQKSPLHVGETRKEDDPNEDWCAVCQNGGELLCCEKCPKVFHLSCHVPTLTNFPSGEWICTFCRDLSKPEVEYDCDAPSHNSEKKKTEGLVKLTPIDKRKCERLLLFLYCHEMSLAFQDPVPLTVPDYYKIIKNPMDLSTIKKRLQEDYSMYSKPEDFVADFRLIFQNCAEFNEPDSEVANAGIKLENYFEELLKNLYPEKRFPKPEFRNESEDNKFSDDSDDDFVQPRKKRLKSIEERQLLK

[29] = target: Transcription initiation factor TFIID subunit 1-like (Homo sapiens) (UniProt Q8IZX4); conditions: Compound concentration 10.0 uM
[30] = target: Bromodomain-containing protein 3 (Homo sapiens) (UniProt Q15059); conditions: Compound concentration 10.0 uM; remark: listed apart in the source
[31] = target: Protein polybromo-1 (Homo sapiens) (UniProt Q86U86); conditions: Compound concentration 10.0 uM; remark: listed apart in the source
[32] = target: Transcription initiation factor TFIID subunit 1-like (Homo sapiens) (UniProt Q8IZX4); conditions: Compound concentration 10.0 uM; remark: listed apart in the source
[33] = target: Histone-lysine N-methyltransferase 2A (Homo sapiens) (UniProt Q03164); conditions: Compound concentration 10.0 uM
[34] = target: Protein polybromo-1 (Homo sapiens) (UniProt Q86U86); conditions: Compound concentration 10.0 uM; remark: listed apart in the source
[35] = target: Protein polybromo-1 (Homo sapiens) (UniProt Q86U86); conditions: Compound concentration 10.0 uM; remark: listed apart in the source
[36] = target: SWI/SNF-related matrix-associated actin-dependent regulator of chromatin subfamily A member 2 (Homo sapiens) (UniProt P51531); conditions: Compound concentration 10.0 uM
[37] = target: Bromodomain-containing protein 1 (Homo sapiens) (UniProt O95696); conditions: Compound concentration 10.0 uM
[38] = target: Histone acetyltransferase p300 (Homo sapiens) (UniProt Q09472); conditions: Compound concentration 10.0 uM
[39] = target: Bromodomain-containing protein 4 (Homo sapiens) (UniProt O60885); conditions: Compound concentration 10.0 uM; remark: listed apart in the source
[40] = target: Bromodomain and WD repeat-containing protein 3 (Homo sapiens) (UniProt Q6RI45); conditions: Compound concentration 10.0 uM
[41] = target: Protein polybromo-1 (Homo sapiens) (UniProt Q86U86); conditions: Compound concentration 10.0 uM; remark: listed apart in the source
[42] = target: ATPase family AAA domain-containing protein 2 (Homo sapiens) (UniProt Q6PL18); conditions: Compound concentration 25.0 uM, Protein concentration 225.0 uM
Description: Alphascreen assay. Domain start/stop: Q981-R1108

[43] = target: Histone acetyltransferase KAT2B (Homo sapiens) (UniProt Q92831); conditions: Compound concentration 10.0 uM
[44] = target: Protein polybromo-1 (Homo sapiens) (UniProt Q86U86); conditions: Compound concentration 10.0 uM; remark: listed apart in the source
[45] = target: Nucleosome-remodeling factor subunit BPTF (Homo sapiens) (UniProt Q12830); conditions: Compound concentration 10.0 uM
Peregrin = Peregrin (Homo sapiens, UniProt P55201); experiment: Alphascreen assay. Binding to BRPF1B (domain start/stop: M626-G740) by alphascreen assay
Chain of Peregrin (P55201 whole entry): as the sequence (P55201 whole entry) above

[46] = target: Bromodomain and PHD finger-containing protein 3 (Homo sapiens) (UniProt Q9ULD4); conditions: Compound concentration 10.0 uM
[47] = target: Nuclear body protein SP140-like protein (Homo sapiens) (UniProt Q9H930); conditions: Compound concentration 10.0 uM
[48] = target: Bromodomain-containing protein 7 (Homo sapiens) (UniProt Q9NPI1); conditions: Compound concentration 10.0 uM
Peregrin (Homo sapiens) [49] = target: Peregrin (Homo sapiens) (UniProt P55201); conditions: Compound concentration 10.0 uM; remark: listed apart in the source
[50] = target: Chromatin remodeling regulator CECR2 (Homo sapiens) (UniProt Q9BXF3); conditions: Compound concentration 10.0 uM; remark: listed apart in the source
[51] = target: Histone acetyltransferase KAT2A (Homo sapiens) (UniProt Q92830); conditions: Compound concentration 10.0 uM
[52] = target: PH-interacting protein (Homo sapiens) (UniProt Q8WWQ0); conditions: Compound concentration 50.0 uM, Protein concentration 0.025 uM
[53] = target: Transcription intermediary factor 1-beta (Homo sapiens) (UniProt Q13263); conditions: Compound concentration 10.0 uM
[54] = target: Bromodomain-containing protein 1 (Homo sapiens) (UniProt O95696); conditions: Compound concentration 25.0 uM, Protein concentration 50.0 uM
Description: Alphascreen assay. Domain start/stop: E556-A688

[55] = target: Bromodomain and WD repeat-containing protein 1 (Homo sapiens) (UniProt Q9NSI6); conditions: Compound concentration 10.0 uM
[56] = target: Transcription intermediary factor 1-alpha (Homo sapiens) (UniProt O15164); conditions: Compound concentration 10.0 uM; remark: listed apart in the source
[57] = target: Bromodomain adjacent to zinc finger domain protein 1A (Homo sapiens) (UniProt Q9NRL2); conditions: Compound concentration 10.0 uM
[58] = target: ATPase family AAA domain-containing protein 2 (Homo sapiens) (UniProt Q6PL18); conditions: Compound concentration 10.0 uM

COc1cc(C#N)ccc1S(=O)(=O)Nc1ccc2c(c1)cc(C)c(=O)n2C
ΔTm [1]: -0.01 °C
ΔTm [2]: 1.1 °C
ΔTm [3]: 0.15 °C
ΔTm [4]: -0.24 °C
ΔTm [5]: 0.1 °C
ΔTm [6]: 0.17 °C
ΔTm [7]: 0.62 °C
IC50 [8]: 315 nM
ΔTm (Peregrin (Homo sapiens) [9]): 1.19 °C
inhibition [10]: 4.5%
ΔTm [11]: 0.25 °C
ΔTm [12]: 0.55 °C
ΔTm [13]: 0.11 °C
ΔTm [14]: 4.57 °C and 3.61 °C
ΔTm [15]: 0.32 °C
inhibition [16]: 49.2%
ΔTm [17]: 0.93 °C and 1.25 °C
ΔTm [18]: 0.42 °C
ΔTm [19]: 0.4 °C
ΔTm [20]: -2.61 °C
ΔTm [21]: 0.38 °C
ΔTm [22]: 0.4 °C
inhibition [23]: 35.4%
ΔTm [24]: 0.49 °C and 1.24 °C
ΔTm [25]: 0.58 °C
ΔTm [26]: 5.4 °C
inhibition [27]: 9.82%
ΔTm [28]: 2.11 °C and 2.01 °C
ΔTm [29]: 0.72 °C
ΔTm [30]: 0.83 °C
ΔTm [31]: 0.3 °C
ΔTm [32]: 0.81 °C
ΔTm [33]: 0.47 °C
ΔTm [34]: 0.3 °C
ΔTm [35]: 0.79 °C
ΔTm [36]: 0.58 °C
ΔTm [37]: 5.67 °C
ΔTm [38]: 1.15 °C
ΔTm [39]: 0.14 °C
ΔTm [40]: 2.08 °C
ΔTm [41]: 0.79 °C
inhibition [42]: 4.03%
ΔTm [43]: 0.53 °C
ΔTm [44]: 0.5 °C
ΔTm [45]: 0.31 °C
IC50 (Peregrin): 47.2 nM
ΔTm [46]: 5.43 °C
ΔTm [47]: 1.35 °C
ΔTm [48]: 6.81 °C
ΔTm (Peregrin (Homo sapiens) [49]): 12.3 °C and 10.8 °C
ΔTm [50]: 0.43 °C
ΔTm [51]: 0.45 °C
inhibition [52]: 6.61% and 8.15%
ΔTm [53]: 1.21 °C
inhibition [54]: 99.7%
ΔTm [55]: 0.74 °C
ΔTm [56]: 1.64 °C
ΔTm [57]: 0.38 °C
ΔTm [58]: -0.43 °C
